For 20 compounds, IC50 results are on record in patent US11897867B2, “6-phenyl-4,5-dihydropyridazin-3(2H)-one derivatives as PDE3A and PDE3B inhibitors for treating cancer” (Bayer Aktiengesellschaft, priority 2017, dated 2024).

Test [1] has as its system HeLa cells (cervical cancer). Briefly: Cell proliferation measurement (Cell Titer Glo), HeLa. In kind it is cell-based. As to conditions: Homo sapiens, 72 h treatment, read-out: Anti-proliferation IC50 HeLa (Cervical cancer). As to the method:
(§1) The antiproliferative activity of the compounds of the general formula (I) was examined in vitro in human cancer cells. For this purpose, 1000 cells (or 500 HeLa cells) were plated in 384-well plates with appropriate growth medium and incubated at 37° C. overnight. After 24 h, the cells on the test plate were treated with the compounds of the general formula (I) as and incubated at 37° C. for 72 h. The compounds were added to the cells by means of an HP D300 digital dispenser in a 10 (or more)-step dilution series. As control, the cells were treated with vehicle (DMSO at 0.3% final concentration). After 72 h, the cells were treated with 20 μl/well of 50% CTG solution in PBS (Promega Cell Titer Glo (catalogue #G755B and G756B)) and incubated at room temperature for 10 min, and luminescence was measured by means of a VICTOR V (Perkin Elmer), in order to determine cell viability at the end of treatment. The percentage effect on cell growth and the IC50 derived therefrom were determined for each test substance using the values from untreated wells (=percent viability). The IC50 values were calculated using a 4-parameter fit.

The target in the next test is T1, human full length PDE3B (Homo sapiens, UniProt Q13370).
T1 construct: Sf9 cells overexpressing human full length PDE3B; purchased SB Drug Discovery, UK; host or cells: Sf9 cells (cell extract)
The experiment in a line: PDE3B enzyme inhibition (3H-cAMP Scintillation Proximity Assay). It is filed as biochemical. As to conditions: PDE3B cell extract from Sf9 cells, 60 min room temperature; read-out: Target IC50 PDE3B IC50. Here is the method: The commercially available 3H-cAMP Scintillation Proximity Assay (SPA, Perkin Elmer) system was used for enzyme inhibition studies. For the determination of the in vitro effect of test substances on the PDE3B reactions 2 μl of the respective test compound solution in DMSO (serial dilutions) were placed in wells of microtiter plates (Isoplate-96/200W; Perkin Elmer). 50 μl of a dilution of PDE3B cell extract from Sf9 cells overexpressing human full length PDE3B (SB Drug Discovery, UK) in buffer A (50 mM Tris/HCl pH 7.5, 8.3 mM MgCl2, 1.7 mM EDTA, 0.2% BSA) was added. The dilution of the PDE3B cell extract was chosen such that the reaction kinetics was linear and less than 70% of the substrate was consumed (typical dilution 1:6000). The reaction was started by addition of 50 μl (0.025 μCi) of 1:2000 in buffer A w/o BSA diluted substrate [8-3H] adenosine 3′,5′-cyclic phosphate (1 μCi/μl; Perkin Elmer). After incubation at room temperature for 60 min, the reaction was stopped by addition of 25 μl of a suspension containing 18 mg/ml yttrium scintillation proximity beads (Perkin Elmer) in water. The microtiter plates were sealed and measured in a Microbeta scintillation counter (PerkinElmer Wallac). IC50 values were determined from sigmoidal curves by plotting percentage PDE3B activity vs log compound concentration.

A further test deals with SK-MEL-3 (melanoma). The experiment in a line: Cell proliferation measurement (Cell Titer Glo), SK-MEL-3. As to conditions: Homo sapiens, SK-MEL3, SK-MEL-3 cells, 72 h treatment, read-out: Anti-proliferation IC50 SK-MEL-3 (melanoma). In kind it is cell-based. Here is the method:
as §1

Another test deals with T2, human full length PDE3A (Homo sapiens, UniProt Q14432).
T2 construct: Sf9 cells overexpressing human full length PDE3A; purchased SB Drug Discovery, UK; host or cells: Sf9 cells (cell extract)
The experiment in a line: PDE3A enzyme inhibition (3H-cAMP Scintillation Proximity Assay). In kind it is biochemical. The following applies: PDE3A cell extract from Sf9 cells, 60 min room temperature; read-out: Target IC50 PDE3A IC50. As to the method: The commercially available 3H-cAMP Scintillation Proximity Assay (SPA, Perkin Elmer) system was used for enzyme inhibition studies. For the determination of the in vitro effect of test substances on the PDE3A reactions 2 μl of the respective test compound solution in DMSO (serial dilutions) were is placed in wells of microtiter plates (Isoplate-96/200W; Perkin Elmer). 50 μl of a dilution of PDE3A cell extract from Sf9 cells overexpressing human full length PDE3A (SB Drug Discovery, UK) in buffer A (50 mM Tris/HCl pH 7.5, 8.3 mM MgCl2, 1.7 mM EDTA, 0.2% BSA) was added. The dilution of the PDE3A cell extract was chosen such that the reaction kinetics was linear and less than 70% of the substrate was consumed (typical dilution 1:5000). The reaction was started by addition of 50 μl (0.025 μCi) of 1:2000 in buffer A w/o BSA diluted substrate [8-3H] adenosine 3′,5′-cyclic phosphate (1 μCi/μl; Perkin Elmer). After incubation at room temperature for 60 min, the reaction was stopped by addition of 25 μl of a suspension containing 18 mg/ml yttrium scintillation proximity beads (Perkin Elmer) in water. The microtiter plates were sealed and measured in a Microbeta scintillation counter (PerkinElmer Wallac). IC50 values were determined from sigmoidal curves by plotting percentage PDE3A activity vs log compound concentration.

Structures are written as SMILES. pIC50: −log10 of the molar value.

T2 sequence (Q14432 whole entry): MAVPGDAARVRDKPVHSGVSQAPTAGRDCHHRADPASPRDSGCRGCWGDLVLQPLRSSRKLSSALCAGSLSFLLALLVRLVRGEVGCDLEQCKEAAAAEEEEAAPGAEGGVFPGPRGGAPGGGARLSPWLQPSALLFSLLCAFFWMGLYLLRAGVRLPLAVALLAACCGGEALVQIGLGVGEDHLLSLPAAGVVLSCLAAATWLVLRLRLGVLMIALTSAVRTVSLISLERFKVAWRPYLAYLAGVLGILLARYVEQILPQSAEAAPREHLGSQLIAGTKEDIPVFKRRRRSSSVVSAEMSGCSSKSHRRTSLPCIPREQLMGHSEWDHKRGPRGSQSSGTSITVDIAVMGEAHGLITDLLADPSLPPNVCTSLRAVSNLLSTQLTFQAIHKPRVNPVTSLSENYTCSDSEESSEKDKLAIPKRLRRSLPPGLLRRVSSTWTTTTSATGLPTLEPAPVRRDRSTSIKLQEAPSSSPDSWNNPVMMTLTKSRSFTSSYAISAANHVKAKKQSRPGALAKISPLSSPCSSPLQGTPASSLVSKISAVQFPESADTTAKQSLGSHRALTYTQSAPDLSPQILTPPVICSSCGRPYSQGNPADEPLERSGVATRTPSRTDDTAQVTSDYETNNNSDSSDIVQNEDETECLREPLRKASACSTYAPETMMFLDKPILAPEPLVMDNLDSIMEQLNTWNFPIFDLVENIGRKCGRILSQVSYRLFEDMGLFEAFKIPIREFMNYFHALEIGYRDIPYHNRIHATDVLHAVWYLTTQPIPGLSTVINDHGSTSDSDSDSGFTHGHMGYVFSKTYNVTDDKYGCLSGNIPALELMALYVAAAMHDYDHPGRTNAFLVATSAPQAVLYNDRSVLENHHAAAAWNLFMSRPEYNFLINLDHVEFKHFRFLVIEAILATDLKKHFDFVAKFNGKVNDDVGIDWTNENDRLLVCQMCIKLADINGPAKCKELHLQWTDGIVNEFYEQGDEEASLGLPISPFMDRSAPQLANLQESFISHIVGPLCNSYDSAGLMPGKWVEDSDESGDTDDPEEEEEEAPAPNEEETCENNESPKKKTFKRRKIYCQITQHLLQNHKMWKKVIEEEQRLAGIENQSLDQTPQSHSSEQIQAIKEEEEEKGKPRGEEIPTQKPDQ
T1 sequence (Q13370 whole entry): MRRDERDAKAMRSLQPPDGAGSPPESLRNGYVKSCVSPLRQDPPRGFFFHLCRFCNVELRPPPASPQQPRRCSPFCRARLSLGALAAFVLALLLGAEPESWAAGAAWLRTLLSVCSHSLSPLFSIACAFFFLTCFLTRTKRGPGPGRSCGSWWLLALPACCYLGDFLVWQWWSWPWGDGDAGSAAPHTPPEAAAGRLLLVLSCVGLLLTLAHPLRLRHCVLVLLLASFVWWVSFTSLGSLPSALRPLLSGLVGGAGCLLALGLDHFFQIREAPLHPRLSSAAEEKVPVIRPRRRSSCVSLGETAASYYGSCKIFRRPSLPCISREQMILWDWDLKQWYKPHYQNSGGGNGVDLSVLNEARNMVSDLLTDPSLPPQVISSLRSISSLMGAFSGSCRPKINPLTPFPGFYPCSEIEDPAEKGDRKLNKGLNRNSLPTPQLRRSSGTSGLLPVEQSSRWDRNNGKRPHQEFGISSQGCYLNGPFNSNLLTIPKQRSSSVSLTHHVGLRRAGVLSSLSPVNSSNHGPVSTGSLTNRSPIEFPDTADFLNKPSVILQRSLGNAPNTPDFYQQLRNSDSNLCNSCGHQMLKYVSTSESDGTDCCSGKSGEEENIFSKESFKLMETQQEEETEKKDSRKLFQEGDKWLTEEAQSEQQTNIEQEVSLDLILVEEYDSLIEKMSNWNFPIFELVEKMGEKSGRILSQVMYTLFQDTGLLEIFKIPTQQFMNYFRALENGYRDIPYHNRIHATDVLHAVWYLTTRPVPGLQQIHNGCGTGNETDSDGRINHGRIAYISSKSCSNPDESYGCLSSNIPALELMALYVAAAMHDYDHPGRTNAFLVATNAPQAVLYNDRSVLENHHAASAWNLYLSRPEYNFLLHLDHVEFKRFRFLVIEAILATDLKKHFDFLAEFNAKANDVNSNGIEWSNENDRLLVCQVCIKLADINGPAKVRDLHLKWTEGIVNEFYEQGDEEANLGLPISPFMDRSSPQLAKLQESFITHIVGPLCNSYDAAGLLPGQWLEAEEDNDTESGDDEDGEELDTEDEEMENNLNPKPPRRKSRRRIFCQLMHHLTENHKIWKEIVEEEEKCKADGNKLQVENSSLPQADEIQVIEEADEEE

Take `O=C1CCC(c2ccc(-c3ccccc3OC(F)(F)F)c(F)c2)=NN1` [Example 44, 6-[2-fluoro-2′-(trifluoromethoxy)[1,1′-biphenyl]-4-yl]-4,5-dihydropyridazin-3(2H)-one]: the pIC50 is 7.75 in test [1], 7.02 on human full length PDE3B, 7.46 in the test on SK-MEL-3 (melanoma) and 6.74 on human full length PDE3A.
Turning to `O=C1CCC(c2ccc(-c3ccoc3)c(F)c2)=NN1` [Example 45, 6-[3-fluoro-4-(furan-3-yl)phenyl]-4,5-dihydropyridazin-3(2H)-one], the pIC50 was 7.98 in test [1], 6.51 on human full length PDE3B, 7.86 with SK-MEL-3 (melanoma) and 6.43 at human full length PDE3A.
Turning to `N#Cc1ccc(-c2ccc(C3=NNC(=O)CC3)cc2F)cc1` [Example 46, 2′-fluoro-4′-(6-oxo-1,4,5,6-tetrahydropyridazin-3-yl)[1,1′-biphenyl]-4-carbonitrile], the pIC50 in test [1] was 8.02; on human full length PDE3B, 7.43; with SK-MEL-3 (melanoma), 7.90; on human full length PDE3A it was 7.21.
`N#Cc1cccc(-c2ccc(C3=NNC(=O)CC3)cc2F)c1` [Example 47, 2′-fluoro-4′-(6-oxo-1,4,5,6-tetrahydropyridazin-3-yl)[1,1′-biphenyl]-3-carbonitrile]: the pIC50 in test [1] was 7.86; at human full length PDE3B, 7.02; in the test with SK-MEL-3 (melanoma), 7.71; on human full length PDE3A it was 7.02.
Consider `Cc1ccc(-c2ccc(C3=NNC(=O)CC3)cc2F)cc1N` [Example 48, 6-(3′-amino-2-fluoro-4′-methyl[1,1′-biphenyl]-4-yl)-4,5-dihydropyridazin-3(2H)-one], for which the pIC50 was 7.88 in test [1], 6.59 on human full length PDE3B, 7.68 in the test on SK-MEL-3 (melanoma) and 6.64 on human full length PDE3A.
As to `O=C1CCC(c2ccc(-c3cccc(O)c3)c(F)c2)=NN1` [Example 49, 6-(2-fluoro-3′-hydroxy[1,1′-biphenyl]-4-yl)-4,5-dihydropyridazin-3(2H)-one], the pIC50 in test [1] was 7.39; on human full length PDE3B, 7.39; in the test with SK-MEL-3 (melanoma) it was 8.05; on human full length PDE3A, 7.20.
For the compound `O=C1CCC(c2ccc(-c3ccccc3O)c(F)c2)=NN1` [Example 50, 6-(2-fluoro-2′-hydroxy[1,1′-biphenyl]-4-yl)-4,5-dihydropyridazin-3(2H)-one], the pIC50 in test [1] was 8.55; at human full length PDE3B it was 6.89; in the test with SK-MEL-3 (melanoma) it was 8.39; at human full length PDE3A, 6.89.
With `O=C1CCC(c2ccc(-c3ccc(F)c(F)c3)c(F)c2)=NN1` [Example 51, 6-(2,3′,4′-trifluoro[1,1′-biphenyl]-4-yl)-4,5-dihydropyridazin-3(2H)-one], the pIC50 is 8.28 in test [1], 7.04 on human full length PDE3B, 8.02 in the test on SK-MEL-3 (melanoma) and 6.92 on human full length PDE3A.
Take `CCOc1ccccc1-c1ccc(C2=NNC(=O)CC2)cc1F` [Example 52, 6-(2′-ethoxy-2-fluoro[1,1′-biphenyl]-4-yl)-4,5-dihydropyridazin-3(2H)-one]: the pIC50 is 7.18 in test [1], 7.19 on human full length PDE3B, less than 7.00 with SK-MEL-3 (melanoma) and 7.02 on human full length PDE3A.
Take `O=C1CCC(c2ccc(-c3cccc(F)c3F)c(F)c2)=NN1` [Example 53, 6-(2,2′,3′-trifluoro[1,1′-biphenyl]-4-yl)-4,5-dihydropyridazin-3(2H)-one]: the pIC50 in test [1] was 8.42; at human full length PDE3B it was 7.47; in the test with SK-MEL-3 (melanoma), 8.17; at human full length PDE3A, 7.17.
On to `O=C1CCC(c2ccc(-c3cc(F)cc(F)c3)c(F)c2)=NN1` [Example 54, 6-(2,3′,5′-trifluoro[1,1′-biphenyl]-4-yl)-4,5-dihydropyridazin-3(2H)-one], for which the pIC50 was 7.73 in test [1], 6.42 at human full length PDE3B, 7.42 with SK-MEL-3 (melanoma) and 6.72 at human full length PDE3A.
Turning to `O=C1CCC(c2ccc(-c3ccc(F)cc3F)c(F)c2)=NN1` [Example 55, 6-(2,2′,4′-trifluoro[1,1′-biphenyl]-4-yl)-4,5-dihydropyridazin-3(2H)-one], the pIC50 in test [1] was 8.71; on human full length PDE3B, 7.21; in the test with SK-MEL-3 (melanoma), 8.47; on human full length PDE3A, 7.30.
In the case of `Cc1ccc(-c2ccc(C3=NNC(=O)CC3)cc2F)c(C)c1` [Example 56, 6-(2-fluoro-2′,4′-dimethyl[1,1′-biphenyl]-4-yl)-4,5-dihydropyridazin-3(2H)-one], the pIC50 in test [1] was 8.36; on human full length PDE3B, 7.21; with SK-MEL-3 (melanoma), 8.14; on human full length PDE3A, 6.96.
On the same counts, the results for `Cc1ccc(F)cc1-c1ccc(C2=NNC(=O)CC2)cc1F` [Example 57, 6-(2,5′-difluoro-2′-methyl[1,1′-biphenyl]-4-yl)-4,5-dihydropyridazin-3(2H)-one] are 8.27, 7.22, 7.93 and 6.74.
As to `Cc1ccc(-c2ccc(C3=NNC(=O)CC3)cc2F)cc1F` [Example 58, 6-(2,3′-difluoro-4′-methyl[1,1′-biphenyl]-4-yl)-4,5-dihydropyridazin-3(2H)-one], the pIC50 is 8.33 in test [1], 7.08 at human full length PDE3B, 8.11 with SK-MEL-3 (melanoma) and 6.60 on human full length PDE3A.
`O=C1CCC(c2ccc(-c3ccccc3F)c(F)c2)=NN1` [Example 60, 6-(2,2′-difluoro[1,1′-biphenyl]-4-yl)-4,5-dihydropyridazin-3(2H)-one]: the pIC50 in test [1] is 8.68; at human full length PDE3B, 7.33; in the test on SK-MEL-3 (melanoma), 8.38; at human full length PDE3A it was 7.02.
On to `COc1ccccc1-c1ccc(C2=NNC(=O)CC2)cc1F` [Example 62, 6-(2-fluoro-2′-methoxy[1,1′-biphenyl]-4-yl)-4,5-dihydropyridazin-3(2H)-one], for which the pIC50 in test [1] is 7.85; at human full length PDE3B, 7.33; in the test on SK-MEL-3 (melanoma), 7.64; at human full length PDE3A it was 6.92.
On the same counts, the results for `O=C1CCC(c2ccc(-c3cccc(F)c3)c(F)c2)=NN1` [Example 63, 6-(2,3′-difluoro[1,1′-biphenyl]-4-yl)-4,5-dihydropyridazin-3(2H)-one] are 8.32, 7.06, 8.19 and 6.60.
For `COc1cccc(-c2ccc(C3=NNC(=O)CC3)cc2F)c1` [Example 64, 6-(2-fluoro-3′-methoxy[1,1′-biphenyl]-4-yl)-4,5-dihydropyridazin-3(2H)-one], the pIC50 in test [1] was 7.92; at human full length PDE3B, 7.04; with SK-MEL-3 (melanoma), 7.64; at human full length PDE3A it was 7.00.
For the compound `Nc1cccc(-c2ccc(C3=NNC(=O)CC3)cc2F)c1` [Example 65, 6-(3′-amino-2-fluoro[1,1′-biphenyl]-4-yl)-4,5-dihydropyridazin-3(2H)-one], the pIC50 in test [1] is 7.89; at human full length PDE3B, 7.12; in the test with SK-MEL-3 (melanoma) it was 7.77; at human full length PDE3A, 6.92.
